Assay results taken from PubChem BioAssay AID1259408 (Genetic Toxicology Data Bank (GENE-TOX), 2018).
The source made the active and inactive calls. How the calls were made is not given here.

System: GENE-TOX genotoxicity assays, various organisms and cells
Test: GENE-TOX mutagenicity studies
Conditions: for call: Assay Type: In vivo carcinogenicity studies
Source text: GENE-TOX provides genetic toxicology (mutagenicity) test data from expert peer review of open scientific literature for more than 3,000 chemicals from the United States Environmental Protection Agency (EPA). GENE-TOX was established to select assay systems for evaluation, review data in the scientific literature, and recommend proper testing protocols and evaluation procedures for these systems.
GENE-TOX covers the years 1991 - 1998. It is no longer updated.
This is an archive assay for GENE-TOX mutagenicity studies.

[1] = Species/Cell Type: Nonhuman, Assay Code: CCG+, Evaluation Type: Evaluation A (Pre-1980)
[2] = Species/Cell Type: Salmonella typhimurium (one or more of the five standard strains: TA98, TA100, TA1535, TA1537, and TA1538), Assay Type: Histidine reverse gene mutation, Ames assay, Assay Code: SAL+*, Activation: With metabolic activation, Evaluation Type: Evaluation A (Pre-1980)
[3] = Species/Cell Type: Mammalian polychromatic erythrocytes, Assay Type: Micronucleus test, chromosome aberrations, Assay Code: MNTT, Evaluation Type: Evaluation B (Post-1980)
[4] = Species/Cell Type: Drosophila melanogaster, Assay Type: Sex-linked recessive lethal gene mutation, Assay Code: SRLT, Evaluation Type: Evaluation A (Pre-1980)
[5] = Species/Cell Type: Escherichia coli polA (W3119 vs P3478), Assay Type: Rec-assay, DNA effects (bacterial DNA repair), Assay Code: RE1+, Evaluation Type: Evaluation A (Pre-1980)
[6] = Species/Cell Type: Human diploid fibroblasts, Assay Type: Unscheduled DNA synthesis (UDS) in vitro, DNA effects, Assay Code: UDH-, Evaluation Type: Evaluation A (Pre-1980)
[7] = Species/Cell Type: Saccharomyces cerevisiae, Assay Type: Mitotic recombination or gene conversion, Assay Code: YEH-, Evaluation Type: Evaluation A (Pre-1980)
[8] = Species/Cell Type: Salmonella typhimurium (one or more of the five standard strains: TA98, TA100, TA1535, TA1537, and TA1538), Assay Type: Histidine reverse gene mutation, Ames assay, Assay Code: SAL-, Evaluation Type: Evaluation A (Pre-1980)
[9] = Species/Cell Type: Bacillus subtilis (H17 vs M45T), Assay Type: Rec-assay, spot test, DNA effects (bacterial DNA repair), Assay Code: REX-, Evaluation Type: Evaluation A (Pre-1980)
[10] = Species/Cell Type: Escherichia coli WP2, Assay Type: Tryptophan reverse gene mutation, Assay Code: WP2-, Evaluation Type: Evaluation A (Pre-1980)
[11] = Species/Cell Type: Escherichia coli polA (W3119 vs P3478), Assay Type: Rec-assay, DNA effects (bacterial DNA repair), Assay Code: RE1T, Evaluation Type: Evaluation A (Pre-1980)
[12] = Species/Cell Type: Mammalian polychromatic erythrocytes, Assay Type: Micronucleus test, chromosome aberrations, Assay Code: MNTT, Evaluation Type: Evaluation A (Pre-1980)
[13] = Species/Cell Type: Nonhuman, Assay Code: CCG+L, Evaluation Type: Evaluation A (Pre-1980)
[14] = Species/Cell Type: Nonhuman, Assay Type: Sister-chromatid exchange (SCE) in vitro, Assay Code: SC2+D, Dose Response: With dose response, Evaluation Type: Evaluation B (Post-1980)
[15] = Species/Cell Type: Salmonella typhimurium (one or more of the five standard strains: TA98, TA100, TA1535, TA1537, and TA1538), Assay Type: Histidine reverse gene mutation, Ames assay, Assay Code: SAL+, Evaluation Type: Evaluation A (Pre-1980)
[16] = Species/Cell Type: Drosophila melanogaster, Assay Type: Sex-linked recessive lethal gene mutation, Assay Code: SRL+, Evaluation Type: Evaluation A (Pre-1980)
[17] = Species/Cell Type: Salmonella typhimurium (one or more of the five standard strains: TA98, TA100, TA1535, TA1537, and TA1538), Assay Type: Histidine reverse gene mutation, Ames assay, Assay Code: SALT, Evaluation Type: Evaluation A (Pre-1980)

O=S(=O)(O)c1ccc2c(N=Nc3ccccc3)c(O)ccc2c1
mutagenic call (Species/Cell Type: Saccharomyces cerevisiae, Assay Type: Mitotic recombination or gene conversion, Assay Code: YEC-, Evaluation Type: Evaluation A (Pre-1980)): inactive; negative

c1ccc2c(c1)cc1ccc3cc4ccccc4c4ccc2c1c34
call [1]: active; positive | mutagenic call [2]: active; positive

CC(C)C(=O)Nc1ccc([N+](=O)[O-])c(C(F)(F)F)c1
mutagenic call (Species/Cell Type: Rodents, Sex: Male, Assay Type: Dominant lethal test, Assay Code: DLT-, Evaluation Type: Evaluation A (Pre-1980)): inactive; negative

COc1cc(O)c2c(=O)c(O)c(-c3ccc(O)c(O)c3)oc2c1
mutagenic call [3]: no conclusion

COc1c(Cl)ccc(Cl)c1C(=O)O
mutagenic call (Species/Cell Type: Bacillus subtilis (H17 vs M45), Assay Type: Rec-assay, spot test, DNA effects (bacterial DNA repair), Assay Code: REW+, Evaluation Type: Evaluation A (Pre-1980)): active; positive | mutagenic call [4]: no conclusion | mutagenic call [5]: active; positive | mutagenic call (Species/Cell Type: Hordeum vulgare (barley), Assay Type: Chromosome aberrations, Assay Code: HOC+, Evaluation Type: Evaluation A (Pre-1980)): active; positive | mutagenic call [6]: inactive; negative | mutagenic call [7]: inactive; negative | mutagenic call [8]: inactive; negative

O=S1(=O)OC(c2ccc(O)cc2)(c2ccc(O)cc2)c2ccccc21
mutagenic call (Species/Cell Type: Bacillus subtilis (H17 vs M45T), Assay Type: Rec-assay, spot test, DNA effects (bacterial DNA repair), Assay Code: REXT, Evaluation Type: Evaluation A (Pre-1980)): no conclusion

CNC(=O)Oc1cc(C)cc(C)c1
mutagenic call [9]: inactive; negative | mutagenic call [10]: inactive; negative

CCN(CC)Cc1cc(Br)ccc1OCC(=O)N/N=C/c1ccccc1O
mutagenic call (Species/Cell Type: Saccharomyces cerevisiae, Assay Type: Reverse gene mutation, Assay Code: YERT, Evaluation Type: Evaluation A (Pre-1980)): no conclusion

NNc1cc2c(nn1)CCN(C(=O)c1ccccc1)C2
mutagenic call (Species/Cell Type: Nonhuman, Assay Type: Sister-chromatid exchange (SCE) in vivo, Assay Code: SC3+, Evaluation Type: Evaluation B (Post-1980)): active; positive

CNC(=O)Oc1ccc(C)c(C)c1
mutagenic call [9]: inactive; negative | mutagenic call [10]: inactive; negative

CC(F)F
mutagenic call [4]: no conclusion

C[C@@H]1C[C@@H]([C@H](O)CC2CC(=O)NC(=O)C2)C(=O)[C@@H](C)C1
mutagenic call (Species/Cell Type: Drosophila melanogaster, Assay Type: Aneuploidy, whole sex chromosome loss, chromosome aberrations, Assay Code: DACT, Evaluation Type: Evaluation A (Pre-1980)): no conclusion | mutagenic call (Species/Cell Type: Escherichia coli polA (W3110 vs P3478), Assay Type: Rec-assay, DNA effects (bacterial DNA repair), Assay Code: RE2+, Evaluation Type: Evaluation A (Pre-1980)): active; positive | mutagenic call [11]: no conclusion | mutagenic call [12]: no conclusion | mutagenic call (Species/Cell Type: Mouse, Sex: Male, Assay Type: Sperm morphology, Assay Code: SPI+, Evaluation Type: Evaluation A (Pre-1980)): active; positive | mutagenic call (Species/Cell Type: Neurospora crassa, Assay Type: Aneuploidy, chromosome aberrations, Assay Code: NEN-, Evaluation Type: Evaluation A (Pre-1980)): inactive; negative | call (Species/Cell Type: Nonhuman, Assay Code: CCGT, Evaluation Type: Evaluation A (Pre-1980)): no conclusion | mutagenic call (Species/Cell Type: Nonhuman, Assay Type: Sister-chromatid exchange (SCE) in vitro, Assay Code: SC2T, Evaluation Type: Evaluation B (Post-1980)): no conclusion | mutagenic call (Species/Cell Type: Vicia faba, Assay Type: Chromosome aberrations, Assay Code: VIC+, Evaluation Type: Evaluation A (Pre-1980)): active; positive

Nc1ncn([C@@H]2O[C@H](CO)[C@@H](O)[C@H]2O)c(=O)n1
mutagenic call (Species/Cell Type: Human lymphocytes, Assay Type: Sister-chromatid exchange (SCE) in vitro, Assay Code: SCL+, Evaluation Type: Evaluation B (Post-1980)): active; positive | mutagenic call (Species/Cell Type: Human, Assay Type: Sister-chromatid exchange (SCE) in vitro, Assay Code: SC1+, Evaluation Type: Evaluation B (Post-1980)): active; positive | mutagenic call (Species/Cell Type: Mouse (C3H/10T1/2) cells, Assay Type: Cell transformation, Assay Code: CTH+, Evaluation Type: Evaluation A (Pre-1980)): active; positive | call [13]: active; positive | mutagenic call [14]: active; positive

COc1ccccc1N1CCN(c2ccc([N+](=O)[O-])c3no[n+]([O-])c23)CC1
mutagenic call [15]: active; positive

OC(CCl)OC(O)CCl (stereo not drawn)
mutagenic call [15]: active; positive

CC(C)N(C(=O)CCl)c1ccccc1
mutagenic call (Species/Cell Type: Saccharomyces cerevisiae, Assay Type: Mitotic recombination or gene conversion, Assay Code: YEC+, Evaluation Type: Evaluation A (Pre-1980)): active; positive

N#CCCN1CC1
mutagenic call (Species/Cell Type: Schizosaccharomyces pombe, Assay Type: Reverse gene mutation, Assay Code: YEZ+, Evaluation Type: Evaluation A (Pre-1980)): active; positive

Cc1ccc(Cl)cc1N
mutagenic call (Species/Cell Type: Mouse, Sex: Male, Assay Type: Sperm morphology, Assay Code: SPI-, Evaluation Type: Evaluation A (Pre-1980)): inactive; negative | call [13]: active; positive

Cc1ccc(S(=O)(=O)NCl)cc1
mutagenic call [3]: no conclusion

CSc1ccc2c(c1)N(CCC1CCCCN1C)c1ccccc1S2 (stereo not drawn)
mutagenic call [16]: active; positive | mutagenic call (Species/Cell Type: Drosophila melanogaster, Sex: Male, Assay Type: Heritable translocation test, chromosome aberrations, Assay Code: DHT+, Evaluation Type: Evaluation A (Pre-1980)): active; positive | mutagenic call [3]: no conclusion

CCn1cc(C(=O)O)c(=O)c2ccc(C)nc21
mutagenic call (Species/Cell Type: Bacillus subtilis (H17 vs M45T), Assay Type: Rec-assay, spot test, DNA effects (bacterial DNA repair), Assay Code: REX+, Evaluation Type: Evaluation A (Pre-1980)): active; positive | mutagenic call [16]: active; positive | mutagenic call [5]: active; positive | mutagenic call (Species/Cell Type: Human lymphocytes, Assay Type: Sister-chromatid exchange (SCE) in vivo, Assay Code: SCY+, Evaluation Type: Evaluation B (Post-1980)): active; positive

O=C(O)CNc1ccc(O)cc1
mutagenic call (Species/Cell Type: Allium cepa, Assay Type: Chromosome aberrations, Assay Code: ALC+, Evaluation Type: Evaluation A (Pre-1980)): active; positive

COc1cc(-c2ccc(N)c(OC)c2)ccc1N
mutagenic call [11]: no conclusion | mutagenic call (Species/Cell Type: Human diploid fibroblasts, Assay Type: Unscheduled DNA synthesis (UDS) in vitro, DNA effects, Assay Code: UDH+*, Activation: With metabolic activation, Evaluation Type: Evaluation A (Pre-1980)): active; positive | call [1]: active; positive | mutagenic call [14]: active; positive | mutagenic call [2]: active; positive

COc1cc2c[n+](C)c3c4cc5c(cc4ccc3c2cc1OC)OCO5
mutagenic call [17]: no conclusion

CC(=O)O[C@@H]1[C@@H](O)[C@H]2O[C@@H]3C=C(C)C(=O)[C@@H](O)[C@]3(CO)[C@]1(C)[C@]21CO1
mutagenic call (Species/Cell Type: Bacillus subtilis (H17 vs M45), Assay Type: Rec-assay, spot test, DNA effects (bacterial DNA repair), Assay Code: REW-, Evaluation Type: Evaluation A (Pre-1980)): inactive; negative | mutagenic call [17]: no conclusion

CC(=O)Nc1cc2c(cc1O)-c1ccccc1C2
mutagenic call [4]: no conclusion | mutagenic call (Species/Cell Type: Escherichia coli polA (W3110 vs P3478), Assay Type: Rec-assay, DNA effects (bacterial DNA repair), Assay Code: RE2-, Evaluation Type: Evaluation A (Pre-1980)): inactive; negative | mutagenic call [11]: no conclusion | mutagenic call [6]: inactive; negative | mutagenic call [7]: inactive; negative | mutagenic call [8]: inactive; negative

CC(=O)c1ccc([N+](=O)[O-])[nH]1
mutagenic call [15]: active; positive

CCC(CC)c1cccc(OC(=O)N(C)N=O)c1
mutagenic call [15]: active; positive

Nc1nc(/C=C/c2ccc([N+](=O)[O-])o2)cs1
mutagenic call [15]: active; positive

CC(C)[N+](=O)[O-]
mutagenic call [12]: no conclusion | call [1]: active; positive
